Reference: patent publication US8846628B2, “Oral formulations of cytidine analogs and methods of use thereof” (Celgene Corporation, priority 2008, dated 2014)
Entries after “also recorded” stand apart in the source; their conditions may differ.

Legend:
[1] = Rapid Aza Clinical Evaluation (RACE) study CL008: plasma PK; assay type: in vivo; settings: human; for AUC(0-t) / AUC(0-inf): sc; for AUC(0-t): 75 mg/m^2, one subject (Formulation 4 cohort), SC 75 mg/m^2 (124 mg); for AUC(0-inf): SC 75 mg/m^2 (120 mg)
Experimental: Several oral formulations were evaluated in this study. A “3+7” cohort of patients was enrolled in the study, i.e., three patients were initially tested per formulation, and the cohorts could increase in size up to ten patients. Cohorts were enrolled in parallel.

clinical = settings: human, in vivo
[2] = in vivo
patients with MDS or AML [3] = experiment: MTD study CL005: hematological response, IWG criteria; assay type: in vivo, human
Source text: Assessment of IWG criteria for certain patients in the MTD study is presented below in Table 10.

patients with MDS or AML [4] = settings: in vivo

`Nc1ncn([C@@H]2O[C@H](CO)[C@@H](O)[C@H]2O)c(=O)n1` [azacitidine, 4-amino-1-β-D-ribofuranosyl-1,3,5-triazin-2(1H)-one] gave an AUC ([1]; 75 mg/m^2, one subject (Formulation 6 cohort), following SC dosing, read-out: AUC (rounded)) of about 1.7 µg·h/mL, an AUC(0-t) ([1]; day 1) of 2.39 µg·h/mL and an AUC(0-t) ([1]; day 15) of 2.44 µg·h/mL. The AUC(0-inf) ([1]; 75 mg/m^2, one subject (Formulation 6 cohort), day 1) was 1.72 µg·h/mL, the AUC(0-inf) ([1]; 75 mg/m^2, one subject (Formulation 6 cohort), day 15) was 1.64 µg·h/mL and the AUC (clinical; po, 180 mg) was 0.33 µg·h/mL. The bioavailability (clinical; po, 180 mg) was 30%, the AUC (clinical; sc, 75 mg/m2) was 1 µg·h/mL and the AUC(0-inf) (clinical; sc, 75 mg/m2, AUC(0-inf)) was 1.21 µg·h/mL. It also gave an AUC(0-t) (clinical; sc, 75 mg/m2, AUC(0-t)) of 1.14 µg·h/mL, a Cmax (clinical; sc, 75 mg/m2, Cmax) of 0.697 µg/mL and a Tmax (clinical; sc, 75 mg/m2, Tmax) of 0.51 h. The half-life (clinical; sc, 75 mg/m2, t½) was 1.73 h, the “dose proportionality of exposure” value [2] was “did not result in dose-proportional increase in exposure” and the “IWG Assessment” value (patients with MDS or AML [3]; Patient 02004 (MDS), SC cycle 1, then oral 120 mg x7d Formulation #1 Cycles 2-6, 180 mg x7d Cycles 7-12) was “morphologic complete response (CR); also recorded: Per IWG 2006 criteria, the patient achieved complete response (CR); also recorded: achieved morphologic complete response per the IWG AML criteria; also recorded: with regard to the ANC condition for the IWG 2000 CR criteria, the patient did not meet the criteria for a complete response; also recorded: CR per IWG 2006 (Days 45-98); also recorded: Morphologic CR per the IWG AML criteria (Diagnosis is MDS)”. The “IWG Assessment” value (patients with MDS or AML [3]; Patient 02007 (CMML), Cohort 4, oral 240 mg Formulation #3 after SC cycle 1, per IWG 2000 criteria) was “HI-P major improvement per IWG 2000 (Days 35-202)”, the platelets versus baseline (patients with MDS or AML [3]; Patient 02007, oral azacitidine starting with cycle 2 (Formulation #3, 240 mg)) was “increase in platelets above the baseline levels” and the “IWG Assessment” value (patients with MDS or AML [3]; Patient 02008 (MDS RAEB-1), Cohort 4, oral 240 mg Formulation #3 after SC cycle 1) was “HI-P major improvement per IWG 2000 (Days 34-110)”. The “IWG Assessment” value (patients with MDS or AML [3]; Patient 02009 (MDS RAEB-2), Cohort 4, oral 240 mg Formulation #3 after SC cycle 1) was “Marrow CR (Days 7-111+) per IWG 2006”, the “IWG Assessment” value (patients with MDS or AML [3]; Patient 02011 (MDS RAEB-1), Cohort 5, oral 300 mg Formulation #3 after SC cycle 1, per IWG 2006 criteria) was “Marrow CR (Days 7-177+) per IWG 2006” and the “IWG Assessment” value (patients with MDS or AML [3]; Patient 02011 (MDS RAEB-1), Cohort 5, oral 300 mg Formulation #3 after SC cycle 1, per revised IWG AML criteria) was “Morphologic CR per the revised IWG AML criteria on Day 21”. The “dose limited toxicity (DLT)” value (patients with MDS or AML [4]) was “none of the patients have shown dose limited toxicity (DLT)”.
